Experimental data as given in patent publication US11028052B2, “Compounds useful as modulators of TRPM8” (Firmenich Incorporated, priority 2013, dated 2021).
≈ marks a conversion by molar mass, not a printed value.

Tests used:
hTRPM8 = target: T1, hTRPM8 (Homo sapiens, UniProt Q7Z2W7); assay: hTRPM8 cell based agonist assay (section 1.1); conditions: mammalian cell line stably expressing TRPM8
T1 construct: expressed in transfected cells
Description: The present compounds are useful as modulators of TRPM8. The activity of TRPM8 can be readily monitored in cell based assays using fluorescent calcium-sensitive dyes, membrane potential dyes, or sodium-sensitive dyes. The activity of TRPM8 can also be monitored with electrophysiological set-ups, such as patch-clamping and two-electrode voltage clamping. A mammalian cell line derivative which stably expresses TRPM8 was used in biological assays in association with testing the present compounds with cool-tasting or -feeling properties (Servant et al. US 2007/0259354 A1 and references cited therein). Typical compound concentrations tested were 100 μM, 50 μM, 10 μM, 1 μM, and 0.5 μM. The present compounds have shown strong activity as agonists of hTRPM8. Assay results for compounds are illustrated in Table 1 below. Specifically, the Compounds listed in Table 1.1, e.g., Compounds 1.A1 to Compounds 1.A9 are the specific compounds as described herein. For example, Compounds 1.A1 is Example 1.1.

Solubility in LSB = format: physicochemical; conditions: Low Sodium Buffer (LSB), aqueous buffer
panelists = assay: Sensory study, cooling line scale vs WS-3 (section 1.2); format: in vivo, human
Protocol: Three typical sensory studies are described below each followed by a table summarizing sensory results of selected compounds of the invention (Tables 1.2 to 1.4).
All samples made with Low Sodium Buffer (LSB) pH ˜7.1 and contain 0.1% ethanol.
Compounds are rated on a 15 point line scale where 45 μM WS-3 (N-Ethyl-p-menthane-3-carboxamide) is ranked as a 5 in cool intensity. In most cases our compounds are tested to determine at what concentration the cooling intensity is equivalent to 45 μM WS-3. In each test, the panelist is presented with a 0 μM control sample, a 45 μM WS-3 control sample and the experimental compound sample and asked to rate the cooling intensity of each sample. Panelists are also asked to rate bitterness. In the table below there was no significant bitterness detected unless otherwise noted. Also, in the table below, n represents the number of tests completed for a given experiment (#panelists×#repetitions).

T1 sequence (Q7Z2W7 whole entry): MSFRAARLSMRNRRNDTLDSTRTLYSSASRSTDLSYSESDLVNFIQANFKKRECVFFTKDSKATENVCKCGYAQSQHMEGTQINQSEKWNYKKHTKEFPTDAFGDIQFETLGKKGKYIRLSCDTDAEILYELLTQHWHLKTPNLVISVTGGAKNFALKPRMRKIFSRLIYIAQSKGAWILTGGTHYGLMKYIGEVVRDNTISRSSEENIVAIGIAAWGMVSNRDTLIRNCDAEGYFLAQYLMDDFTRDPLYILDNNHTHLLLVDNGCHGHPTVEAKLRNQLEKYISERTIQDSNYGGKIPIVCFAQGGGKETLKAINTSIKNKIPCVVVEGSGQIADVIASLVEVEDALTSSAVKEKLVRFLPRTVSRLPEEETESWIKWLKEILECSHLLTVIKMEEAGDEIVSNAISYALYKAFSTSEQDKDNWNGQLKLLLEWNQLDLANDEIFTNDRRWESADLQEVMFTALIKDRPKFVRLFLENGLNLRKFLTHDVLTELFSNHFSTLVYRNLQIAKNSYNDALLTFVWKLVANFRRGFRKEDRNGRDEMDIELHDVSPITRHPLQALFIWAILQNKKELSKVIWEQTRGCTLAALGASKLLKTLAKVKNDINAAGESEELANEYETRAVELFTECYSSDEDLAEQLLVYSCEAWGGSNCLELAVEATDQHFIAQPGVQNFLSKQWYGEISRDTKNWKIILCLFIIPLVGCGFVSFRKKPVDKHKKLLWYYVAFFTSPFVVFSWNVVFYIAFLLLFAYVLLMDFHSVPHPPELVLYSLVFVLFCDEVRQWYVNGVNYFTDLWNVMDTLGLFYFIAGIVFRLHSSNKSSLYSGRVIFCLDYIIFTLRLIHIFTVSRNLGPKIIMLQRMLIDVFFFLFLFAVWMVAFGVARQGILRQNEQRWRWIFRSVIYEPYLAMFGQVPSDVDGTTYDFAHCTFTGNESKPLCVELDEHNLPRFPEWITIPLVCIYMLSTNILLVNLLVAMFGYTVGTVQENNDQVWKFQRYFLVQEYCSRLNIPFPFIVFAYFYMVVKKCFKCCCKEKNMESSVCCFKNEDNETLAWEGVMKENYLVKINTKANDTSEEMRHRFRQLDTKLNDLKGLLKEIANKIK

- EC50 (hTRPM8): 34 nM
- hTRPM8 EC50 Ratio (hTRPM8): 100.0
- solubility (Solubility in LSB): 337 µM (≈ 105 µg/mL)
Structure (SMILES): CC1=NN(CC(=O)c2ccccc2)C(=O)C1(C)C1CCCCC1 (centres unmarked) [Example 1.1, 4-cyclohexyl-3,4-dimethyl-1-(2-oxo-2-phenylethyl)-1H-pyrazol-5(4H)-one]
- Average Cooling (panelists; Table 1.2, 5 μM, 15 point line scale, n = 30): 4.7
- Sensory Results (panelists; compound concentration compared in cooling intensity with 45 uM WS-3, LSB pH ~7.1, 0.1% ethanol): 5 uM~45 uM WS-3
